Source: patent publication US20080176936A1, “Classes of Compounds that Interact with Integrins” (priority 2005, published 2008)

Experiments:
[1] = target: T1, αllbβ3 integrin (Homo sapiens, UniProt P05106+P08514); experiment: ELISA: inhibition of binding of αllbβ3 integrin membrane preparation to coated extracellular matrix protein; settings: human platelet membrane preparation
T1 construct: Human platelet membrane preparations were used as a source of αllbβ3 integrin; from tissue; host or cells: human platelets (membrane preparation)
Outline: (§1)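 Integrin sources were human platelet membrane preparations for αIIbβ3 and WM-115 cells for αVβ3, each preincubated with test compound. Binding to fibrinogen- or vitronectin-coated plates (10 µg/well) was quantified with an anti-integrin β3 antibody and an HRP-coupled secondary antibody using colorimetric detection.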

[2] = target: T2, αVβ3 integrin (Homo sapiens, UniProt P05106+P06756); experiment: ELISA: inhibition of binding of αVβ3 integrin (source WM-115 cell line) to coated extracellular matrix protein; settings: WM-115 cell line as integrin source
T2 construct: the cell line WM-115 was used as a source of αVβ3 integrin; endogenous in cells; host or cells: WM-115 cell line
Outline: as §1

T2 sequence (P06756 31-889 limits assumed): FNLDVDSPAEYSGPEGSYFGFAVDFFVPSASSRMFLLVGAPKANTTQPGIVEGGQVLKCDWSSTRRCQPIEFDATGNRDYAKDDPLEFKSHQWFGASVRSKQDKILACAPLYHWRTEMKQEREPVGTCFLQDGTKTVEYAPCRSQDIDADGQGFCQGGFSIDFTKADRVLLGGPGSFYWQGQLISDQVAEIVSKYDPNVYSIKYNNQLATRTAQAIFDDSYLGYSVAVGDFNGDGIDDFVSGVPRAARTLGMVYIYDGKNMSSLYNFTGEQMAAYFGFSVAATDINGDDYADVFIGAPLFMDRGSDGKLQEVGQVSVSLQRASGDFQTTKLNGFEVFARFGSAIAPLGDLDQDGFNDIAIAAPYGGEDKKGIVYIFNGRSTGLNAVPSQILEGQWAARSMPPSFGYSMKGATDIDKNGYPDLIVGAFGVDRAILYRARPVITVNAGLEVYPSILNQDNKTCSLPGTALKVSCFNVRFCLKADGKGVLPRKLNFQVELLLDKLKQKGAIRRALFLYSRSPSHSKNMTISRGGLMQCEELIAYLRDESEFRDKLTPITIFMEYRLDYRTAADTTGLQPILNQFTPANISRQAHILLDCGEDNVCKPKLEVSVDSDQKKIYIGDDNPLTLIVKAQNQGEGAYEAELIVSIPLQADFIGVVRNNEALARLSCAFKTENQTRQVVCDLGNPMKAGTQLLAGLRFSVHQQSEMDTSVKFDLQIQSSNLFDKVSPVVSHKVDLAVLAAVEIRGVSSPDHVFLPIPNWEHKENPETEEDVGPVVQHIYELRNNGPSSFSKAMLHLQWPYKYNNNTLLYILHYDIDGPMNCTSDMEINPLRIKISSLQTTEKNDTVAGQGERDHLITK
T2 sequence (P06756 891-1048 partner limits assumed): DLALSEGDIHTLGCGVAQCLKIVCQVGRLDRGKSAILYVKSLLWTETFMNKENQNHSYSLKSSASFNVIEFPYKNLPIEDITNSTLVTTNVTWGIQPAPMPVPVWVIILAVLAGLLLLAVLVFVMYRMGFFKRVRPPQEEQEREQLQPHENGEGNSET
T2 sequence (P05106 27-788): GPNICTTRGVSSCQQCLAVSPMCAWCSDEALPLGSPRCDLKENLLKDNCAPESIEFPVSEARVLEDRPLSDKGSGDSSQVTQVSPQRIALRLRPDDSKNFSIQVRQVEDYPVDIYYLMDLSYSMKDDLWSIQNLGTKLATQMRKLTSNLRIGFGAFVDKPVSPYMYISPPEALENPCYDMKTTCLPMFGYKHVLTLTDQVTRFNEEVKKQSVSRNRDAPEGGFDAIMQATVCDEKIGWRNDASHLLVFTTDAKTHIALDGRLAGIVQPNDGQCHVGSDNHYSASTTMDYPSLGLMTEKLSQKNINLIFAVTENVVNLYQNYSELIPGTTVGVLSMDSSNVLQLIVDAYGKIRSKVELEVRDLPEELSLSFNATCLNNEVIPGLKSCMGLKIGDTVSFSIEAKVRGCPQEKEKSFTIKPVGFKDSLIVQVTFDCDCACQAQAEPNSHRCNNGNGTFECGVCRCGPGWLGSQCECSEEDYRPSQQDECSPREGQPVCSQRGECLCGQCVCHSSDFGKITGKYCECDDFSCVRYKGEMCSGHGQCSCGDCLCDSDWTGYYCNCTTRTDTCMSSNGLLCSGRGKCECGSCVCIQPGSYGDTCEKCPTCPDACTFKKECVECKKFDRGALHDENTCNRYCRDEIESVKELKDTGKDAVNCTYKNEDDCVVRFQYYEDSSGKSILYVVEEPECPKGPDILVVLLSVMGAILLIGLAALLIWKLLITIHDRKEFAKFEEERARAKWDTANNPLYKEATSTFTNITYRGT
T1 sequence (P08514 32-887 limits assumed): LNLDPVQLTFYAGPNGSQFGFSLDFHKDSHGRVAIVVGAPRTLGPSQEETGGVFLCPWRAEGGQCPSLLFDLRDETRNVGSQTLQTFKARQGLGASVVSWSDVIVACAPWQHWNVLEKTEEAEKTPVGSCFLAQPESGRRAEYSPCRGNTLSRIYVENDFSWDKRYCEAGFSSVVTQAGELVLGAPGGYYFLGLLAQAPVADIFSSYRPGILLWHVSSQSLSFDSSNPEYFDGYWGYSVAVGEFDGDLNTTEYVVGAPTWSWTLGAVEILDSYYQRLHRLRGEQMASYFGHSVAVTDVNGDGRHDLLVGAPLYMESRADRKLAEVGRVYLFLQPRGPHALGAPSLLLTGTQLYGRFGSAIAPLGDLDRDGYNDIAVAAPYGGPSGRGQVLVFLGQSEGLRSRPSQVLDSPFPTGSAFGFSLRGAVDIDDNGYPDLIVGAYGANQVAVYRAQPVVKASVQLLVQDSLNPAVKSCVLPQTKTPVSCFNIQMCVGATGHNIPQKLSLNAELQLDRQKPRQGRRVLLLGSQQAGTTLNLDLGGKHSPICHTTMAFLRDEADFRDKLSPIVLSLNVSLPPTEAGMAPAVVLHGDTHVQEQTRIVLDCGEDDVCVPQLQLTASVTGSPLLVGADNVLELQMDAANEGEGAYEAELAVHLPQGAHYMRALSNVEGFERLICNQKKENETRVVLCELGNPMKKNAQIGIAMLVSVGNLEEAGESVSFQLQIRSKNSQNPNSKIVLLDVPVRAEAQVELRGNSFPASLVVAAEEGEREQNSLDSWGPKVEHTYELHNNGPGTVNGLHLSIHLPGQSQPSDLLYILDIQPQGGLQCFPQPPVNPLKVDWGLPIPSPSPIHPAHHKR
T1 sequence (P08514 891-1039 partner limits assumed): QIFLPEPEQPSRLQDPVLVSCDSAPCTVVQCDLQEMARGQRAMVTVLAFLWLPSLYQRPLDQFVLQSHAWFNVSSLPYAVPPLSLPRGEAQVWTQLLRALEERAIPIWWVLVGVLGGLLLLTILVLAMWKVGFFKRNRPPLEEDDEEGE
T1 sequence (P05106 27-788): as the sequence (P05106 27-788) above

| SMILES | INHIBITION @ 250 uM RECEPTOR allBb3 SUBSTRATE FIBRINOGEN [1] | INHIBITION 250 uM RECEPTOR allBb3 SUBSTRATE VITRONECTIN [1] | INHIBITION 250 uM RECEPTOR aVb3 SUBSTRATE FIBRINOGEN [2] |
| --- | --- | --- | --- |
| COC1OC(COCc2cccc(N)c2)C(O)C(OCC(=O)O)C1NC(=O)c1ccc(Cl)cc1 (single isomer, unassigned) [Compound 9] | + (36% to 60% inhibition at 250 micromolar) | +++ (81% to 100% inhibition at 250 micromolar) | +++ (81% to 100% inhibition at 250 micromolar) |
| Nc1cccc(C(=O)N[C@H]2C(O)O[C@H](COCC(=O)O)[C@@H](O)[C@@H]2OCc2ccc(Br)cc2)c1 (stereo partly drawn) [Compound 2] | ++ (61% to 80% inhibition at 250 micromolar) | +++ (81% to 100% inhibition at 250 micromolar) | ++ (61% to 80% inhibition at 250 micromolar) |
| Nc1cccc(COCC2OC(O)C(NC(=O)c3ccc(Cl)cc3)C(OCc3ccc(C(=O)O)cc3)C2O)c1 (single isomer, unassigned) [Compound 67] | + (36% to 60% inhibition at 250 micromolar) | +++ (81% to 100% inhibition at 250 micromolar) | − (0% to 35% inhibition at 250 micromolar) |
| COC1OC(COCc2cccc(N)c2)C(O)C(OCc2ccc(Br)cc2)C1NC(=O)c1ccc(C(=O)O)cc1 (single isomer, unassigned) [Compound 3] | + (36% to 60% inhibition at 250 micromolar) | +++ (81% to 100% inhibition at 250 micromolar) | + (36% to 60% inhibition at 250 micromolar) |
| COC1OC(COCc2ccccc2)C(O)C(OCc2cccc(N)c2)C1NC(=O)CCC(=O)O (single isomer, unassigned) [Compound 20] | +++ (81% to 100% inhibition at 250 micromolar) | +++ (81% to 100% inhibition at 250 micromolar) | +++ (81% to 100% inhibition at 250 micromolar) |
| Nc1cccc(COCC2OC(O)C(NC(=O)c3ccc(Cl)cc3)C(OCc3ccc(C(=O)O)cc3)C2O)c1 (single isomer, unassigned) [Compound 66] | + (36% to 60% inhibition at 250 micromolar) | +++ (81% to 100% inhibition at 250 micromolar) | + (36% to 60% inhibition at 250 micromolar) |
| COCC1OC(OCc2ccccc2)C(NC(=O)CCNC(=N)N)C(OCC(=O)O)C1O (single isomer, unassigned) [Compound 90] | − (0% to 35% inhibition at 250 micromolar) | +++ (81% to 100% inhibition at 250 micromolar) | − (0% to 35% inhibition at 250 micromolar) |
| COCC1OC(OCc2ccccc2)C(NC(=O)CCNC(=N)N)C(OCc2ccc(C(=O)O)cc2)C1O (single isomer, unassigned) [Compound 98] | − (0% to 35% inhibition at 250 micromolar) | +++ (81% to 100% inhibition at 250 micromolar) | − (0% to 35% inhibition at 250 micromolar) |
| COC1OC(COCC(=O)O)C(O)C(OCc2ccccc2)C1NC(=O)c1cc(N)cc(N)c1 (single isomer, unassigned) [Compound 130] | − (0% to 35% inhibition at 250 micromolar) | +++ (81% to 100% inhibition at 250 micromolar) | − (0% to 35% inhibition at 250 micromolar) |
| CCOC1OC(COCC(=O)O)C(O)C(OCc2cccc(N)c2)C1NC(=O)c1ccc(Cl)cc1 (single isomer, unassigned) [Compound 77] | ++ (61% to 80% inhibition at 250 micromolar) | +++ (81% to 100% inhibition at 250 micromolar) | + (36% to 60% inhibition at 250 micromolar) |
| Nc1cccc(COC2C(O)C(COCc3ccc(C(=O)O)cc3)OC(O)C2NC(=O)c2ccc(Cl)cc2)c1 (single isomer, unassigned) [Compound 81] | + (36% to 60% inhibition at 250 micromolar) | +++ (81% to 100% inhibition at 250 micromolar) | +++ (81% to 100% inhibition at 250 micromolar) |
| CCOC1O[C@H](COCc2cccc(N)c2)[C@@H](O)[C@H](OCc2ccccc2)[C@H]1NC(=O)c1ccc(C(=O)O)cc1 (single isomer, unassigned) [Compound 36] | + (36% to 60% inhibition at 250 micromolar) | +++ (81% to 100% inhibition at 250 micromolar) | +++ (81% to 100% inhibition at 250 micromolar) |
| CCOC1OC(COCC(=O)O)C(O)C(OCc2ccccc2)C1NC(=O)CNC(=N)N (single isomer, unassigned) [Compound 119] | − (0% to 35% inhibition at 250 micromolar) | +++ (81% to 100% inhibition at 250 micromolar) | − (0% to 35% inhibition at 250 micromolar) |
| COC1OC(COCc2ccc(Br)cc2)C(O)C(OCc2cccc(N)c2)C1NC(=O)CCC(=O)O (single isomer, unassigned) [Compound 25] | + (36% to 60% inhibition at 250 micromolar) | +++ (81% to 100% inhibition at 250 micromolar) | +++ (81% to 100% inhibition at 250 micromolar) |
| CCOC1OC(COCc2ccc(C(=O)O)cc2)C(O)C(OCc2cccc(N)c2)C1NC(=O)c1ccc(Cl)cc1 (single isomer, unassigned) [Compound 78] | − (0% to 35% inhibition at 250 micromolar) | +++ (81% to 100% inhibition at 250 micromolar) | +++ (81% to 100% inhibition at 250 micromolar) |
| CCOC1O[C@H](COCc2cccc(N)c2)[C@@H](O)[C@H](OCC(=O)O)[C@H]1NC(=O)c1ccccc1 (single isomer, unassigned) [Compound 55] | + (36% to 60% inhibition at 250 micromolar) | +++ (81% to 100% inhibition at 250 micromolar) | +++ (81% to 100% inhibition at 250 micromolar) |
| COCC1OC(OCc2ccccc2)C(NC(=O)CCNC(=N)N)C(OCc2ccc(C(=O)O)cc2)C1O (single isomer, unassigned) [Compound 97] | − (0% to 35% inhibition at 250 micromolar) | − (0% to 35% inhibition at 250 micromolar) | − (0% to 35% inhibition at 250 micromolar) |
| COC1OC(COCC(=O)O)C(O)C(OCc2ccccc2)C1NC(=O)C1CCNCC1 (single isomer, unassigned) [Compound 134] | +++ (81% to 100% inhibition at 250 micromolar) | +++ (81% to 100% inhibition at 250 micromolar) | − (0% to 35% inhibition at 250 micromolar) |
